The target of one assay is T1, Androgen receptor (Homo sapiens, UniProt P10275).
T1 sequence (P10275 whole entry): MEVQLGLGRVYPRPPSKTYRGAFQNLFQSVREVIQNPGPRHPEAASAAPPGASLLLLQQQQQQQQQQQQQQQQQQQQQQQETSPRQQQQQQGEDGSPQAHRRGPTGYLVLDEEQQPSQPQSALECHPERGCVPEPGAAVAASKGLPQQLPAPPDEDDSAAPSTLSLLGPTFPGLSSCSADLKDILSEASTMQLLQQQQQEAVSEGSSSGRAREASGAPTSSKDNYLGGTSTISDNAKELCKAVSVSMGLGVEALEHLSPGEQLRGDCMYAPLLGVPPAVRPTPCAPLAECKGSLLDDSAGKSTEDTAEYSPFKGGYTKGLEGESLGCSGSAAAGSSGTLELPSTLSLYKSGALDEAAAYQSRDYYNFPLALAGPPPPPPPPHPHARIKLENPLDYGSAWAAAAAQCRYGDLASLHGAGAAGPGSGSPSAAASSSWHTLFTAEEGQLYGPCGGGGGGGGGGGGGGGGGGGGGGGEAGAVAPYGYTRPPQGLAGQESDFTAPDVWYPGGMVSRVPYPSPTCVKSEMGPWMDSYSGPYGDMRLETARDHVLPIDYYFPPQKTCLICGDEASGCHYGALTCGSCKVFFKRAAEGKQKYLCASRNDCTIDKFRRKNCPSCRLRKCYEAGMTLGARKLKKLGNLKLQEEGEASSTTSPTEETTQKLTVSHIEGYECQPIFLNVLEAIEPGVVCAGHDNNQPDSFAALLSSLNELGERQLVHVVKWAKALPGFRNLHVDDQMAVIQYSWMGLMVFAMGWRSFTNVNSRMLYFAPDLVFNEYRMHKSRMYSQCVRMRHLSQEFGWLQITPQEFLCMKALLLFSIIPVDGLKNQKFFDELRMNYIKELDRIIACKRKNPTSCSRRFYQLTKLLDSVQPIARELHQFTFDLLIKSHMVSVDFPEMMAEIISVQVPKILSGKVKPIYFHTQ

In another assay the target is Melanocortin receptor 3 (Homo sapiens, UniProt P41968).
Melanocortin receptor 3, sequence (P41968 whole entry): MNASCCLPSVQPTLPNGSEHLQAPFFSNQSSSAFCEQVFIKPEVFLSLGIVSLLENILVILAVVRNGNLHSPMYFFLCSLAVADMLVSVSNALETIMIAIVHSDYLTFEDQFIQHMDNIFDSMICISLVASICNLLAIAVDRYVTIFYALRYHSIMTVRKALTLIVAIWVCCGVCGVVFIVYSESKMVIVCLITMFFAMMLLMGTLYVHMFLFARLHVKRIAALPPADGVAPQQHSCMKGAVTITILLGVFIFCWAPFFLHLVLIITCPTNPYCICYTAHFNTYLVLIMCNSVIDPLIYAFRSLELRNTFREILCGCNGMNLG
In another assay the target is D(3) dopamine receptor (Homo sapiens, UniProt P35462).
D(3) dopamine receptor, sequence (P35462 whole entry): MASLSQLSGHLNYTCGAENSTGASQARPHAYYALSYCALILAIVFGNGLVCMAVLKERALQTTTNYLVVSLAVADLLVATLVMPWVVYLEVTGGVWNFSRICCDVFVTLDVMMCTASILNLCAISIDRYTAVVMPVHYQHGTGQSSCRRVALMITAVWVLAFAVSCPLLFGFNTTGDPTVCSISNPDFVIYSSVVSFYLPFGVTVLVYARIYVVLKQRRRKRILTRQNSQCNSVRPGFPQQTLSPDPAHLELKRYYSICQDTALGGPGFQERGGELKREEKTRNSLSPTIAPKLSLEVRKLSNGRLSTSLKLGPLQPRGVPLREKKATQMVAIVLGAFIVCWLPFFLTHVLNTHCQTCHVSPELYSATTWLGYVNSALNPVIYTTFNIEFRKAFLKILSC
The target of another assay is Histamine H2 receptor (Homo sapiens, UniProt P25021). Type of assay: functional, cell-based.
Histamine H2 receptor, sequence (P25021 whole entry): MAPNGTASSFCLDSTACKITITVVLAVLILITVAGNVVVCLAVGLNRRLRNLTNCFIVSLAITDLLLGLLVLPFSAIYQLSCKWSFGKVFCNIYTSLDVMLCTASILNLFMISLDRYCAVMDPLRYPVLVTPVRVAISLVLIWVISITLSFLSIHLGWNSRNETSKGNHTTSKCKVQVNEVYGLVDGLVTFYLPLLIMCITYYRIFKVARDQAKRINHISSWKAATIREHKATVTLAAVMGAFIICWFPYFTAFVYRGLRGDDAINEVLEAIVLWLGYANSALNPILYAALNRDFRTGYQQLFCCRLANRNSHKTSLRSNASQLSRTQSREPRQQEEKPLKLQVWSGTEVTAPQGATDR
Assay [1] has as its target Gamma-aminobutyric acid receptor subunit alpha-1 (Rattus norvegicus, UniProt P62813). The class given is functional.
The target in assay [2] is T2, Alpha-2A adrenergic receptor (Homo sapiens, UniProt P08913).
T2 sequence (P08913 whole entry): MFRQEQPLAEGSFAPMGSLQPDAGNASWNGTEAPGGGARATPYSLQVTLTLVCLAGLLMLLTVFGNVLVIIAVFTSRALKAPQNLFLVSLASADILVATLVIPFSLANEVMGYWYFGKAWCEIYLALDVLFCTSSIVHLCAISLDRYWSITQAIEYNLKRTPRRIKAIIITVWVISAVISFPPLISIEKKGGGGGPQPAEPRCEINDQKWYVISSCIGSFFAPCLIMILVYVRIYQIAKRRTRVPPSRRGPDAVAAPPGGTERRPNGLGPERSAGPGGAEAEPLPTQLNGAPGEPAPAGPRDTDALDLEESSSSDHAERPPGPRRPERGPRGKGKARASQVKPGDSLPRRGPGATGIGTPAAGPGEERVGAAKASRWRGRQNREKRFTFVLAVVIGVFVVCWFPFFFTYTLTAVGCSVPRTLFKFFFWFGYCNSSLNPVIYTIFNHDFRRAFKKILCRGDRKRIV
The class given is functional, cell-based.

For assay [3], the target named is Glutamate receptor ionotropic, NMDA 1 (Rattus norvegicus, UniProt P35439).
Another assay concerns the target D(1A) dopamine receptor (Homo sapiens, UniProt P21728). Type of assay: functional, cell-based.
Assay [4] deals with Kappa-type opioid receptor (Homo sapiens, UniProt P41145).
Kappa-type opioid receptor, sequence (P41145 whole entry): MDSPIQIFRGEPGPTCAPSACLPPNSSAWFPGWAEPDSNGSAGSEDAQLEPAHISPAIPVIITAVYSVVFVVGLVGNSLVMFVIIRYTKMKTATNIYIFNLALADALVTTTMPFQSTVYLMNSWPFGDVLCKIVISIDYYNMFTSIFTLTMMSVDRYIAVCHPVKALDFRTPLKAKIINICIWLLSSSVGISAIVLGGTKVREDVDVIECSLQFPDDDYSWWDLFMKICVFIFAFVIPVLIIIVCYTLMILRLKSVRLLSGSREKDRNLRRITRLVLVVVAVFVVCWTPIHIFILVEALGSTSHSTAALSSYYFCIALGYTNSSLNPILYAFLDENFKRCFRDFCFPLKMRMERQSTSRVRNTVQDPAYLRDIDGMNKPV
The target in assay [5] is T3, Muscarinic acetylcholine receptor M2 (Homo sapiens, UniProt P08172).
T3 sequence (P08172 whole entry): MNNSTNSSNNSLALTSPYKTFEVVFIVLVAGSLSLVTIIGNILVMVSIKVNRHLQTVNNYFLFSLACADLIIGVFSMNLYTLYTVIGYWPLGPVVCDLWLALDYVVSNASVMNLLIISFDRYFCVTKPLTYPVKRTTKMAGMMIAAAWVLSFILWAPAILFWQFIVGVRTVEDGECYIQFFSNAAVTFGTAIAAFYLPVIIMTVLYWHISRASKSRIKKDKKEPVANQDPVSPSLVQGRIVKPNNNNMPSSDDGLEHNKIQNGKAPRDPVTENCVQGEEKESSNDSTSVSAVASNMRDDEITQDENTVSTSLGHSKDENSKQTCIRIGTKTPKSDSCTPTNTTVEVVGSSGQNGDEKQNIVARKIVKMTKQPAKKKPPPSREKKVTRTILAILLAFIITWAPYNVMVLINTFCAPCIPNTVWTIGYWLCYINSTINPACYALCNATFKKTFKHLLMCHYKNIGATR
Type of assay: functional, cell-based.

Assay [6] deals with T4, 5-hydroxytryptamine receptor 3A (Homo sapiens, UniProt P46098).
T4 sequence (P46098 whole entry): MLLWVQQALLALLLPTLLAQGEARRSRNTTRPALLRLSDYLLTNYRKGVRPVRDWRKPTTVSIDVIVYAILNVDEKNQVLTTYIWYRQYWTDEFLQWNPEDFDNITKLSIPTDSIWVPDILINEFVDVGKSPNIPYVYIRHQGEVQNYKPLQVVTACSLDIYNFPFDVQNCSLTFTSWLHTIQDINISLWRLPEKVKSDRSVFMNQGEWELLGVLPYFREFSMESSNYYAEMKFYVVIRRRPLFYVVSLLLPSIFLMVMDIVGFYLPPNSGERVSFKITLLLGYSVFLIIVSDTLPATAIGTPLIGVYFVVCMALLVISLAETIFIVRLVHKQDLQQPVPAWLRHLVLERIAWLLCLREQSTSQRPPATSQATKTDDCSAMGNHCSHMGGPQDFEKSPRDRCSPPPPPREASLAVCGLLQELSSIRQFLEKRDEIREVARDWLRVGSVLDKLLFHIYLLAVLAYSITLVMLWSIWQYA
Type of assay: functional.

Bounds are passed on as bounds.
Further: assay procedure not described here.

D(1A) dopamine receptor, sequence (P21728 whole entry): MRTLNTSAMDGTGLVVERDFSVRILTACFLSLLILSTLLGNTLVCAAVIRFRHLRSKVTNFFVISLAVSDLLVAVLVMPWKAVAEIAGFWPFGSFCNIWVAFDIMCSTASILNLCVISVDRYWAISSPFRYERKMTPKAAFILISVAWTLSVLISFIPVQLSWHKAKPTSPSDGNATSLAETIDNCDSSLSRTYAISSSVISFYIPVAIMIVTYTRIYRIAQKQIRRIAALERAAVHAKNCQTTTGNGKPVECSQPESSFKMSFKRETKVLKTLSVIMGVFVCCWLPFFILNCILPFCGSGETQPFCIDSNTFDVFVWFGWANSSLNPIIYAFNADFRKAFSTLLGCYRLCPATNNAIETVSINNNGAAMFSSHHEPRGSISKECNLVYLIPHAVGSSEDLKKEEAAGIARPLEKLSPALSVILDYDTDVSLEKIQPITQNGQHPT
Gamma-aminobutyric acid receptor subunit alpha-1, sequence (P62813 whole entry): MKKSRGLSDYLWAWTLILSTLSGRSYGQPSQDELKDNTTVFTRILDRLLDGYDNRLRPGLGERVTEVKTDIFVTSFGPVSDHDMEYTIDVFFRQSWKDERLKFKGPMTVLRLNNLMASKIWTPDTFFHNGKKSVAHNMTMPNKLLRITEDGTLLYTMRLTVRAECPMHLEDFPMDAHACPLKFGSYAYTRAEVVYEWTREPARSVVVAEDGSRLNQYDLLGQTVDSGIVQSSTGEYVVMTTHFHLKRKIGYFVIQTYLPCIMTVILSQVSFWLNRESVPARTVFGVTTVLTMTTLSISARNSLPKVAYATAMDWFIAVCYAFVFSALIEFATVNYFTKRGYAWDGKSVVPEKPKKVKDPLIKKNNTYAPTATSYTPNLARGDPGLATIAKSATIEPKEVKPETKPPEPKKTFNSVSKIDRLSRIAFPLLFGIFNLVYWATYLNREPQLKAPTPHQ

Take `C[C@@H]1C[C@H]2[C@@H]3C[C@H](F)C4=CC(=O)C=C[C@]4(C)[C@@]3(F)[C@@H](O)C[C@]2(C)[C@@]1(O)C(=O)COC(=O)C(C)(C)C` [FLUMETHASONE PIVALATE]: half-maximal activity on Androgen receptor (AC50) was put at 1.4 µM.

On to `CS(=O)(=O)Nc1cc2occ(NC=O)c(=O)c2cc1Oc1ccccc1` [IGURATIMOD], for which the AC50 at Androgen receptor, at Melanocortin receptor 3 and on D(3) dopamine receptor was above 30 µM throughout.

Regarding `C[C@@H]1O[C@@H](OC[C@H]2O[C@@H](Oc3c(-c4ccc(OCCO)c(OCCO)c4)oc4cc(OCCO)cc(O)c4c3=O)[C@H](O)[C@@H](O)[C@@H]2O)[C@H](O)[C@H](O)[C@H]1O` [TROXERUTIN], at Androgen receptor, the AC50 (in general, the concentration at which the activity in the assay is half-maximal) is above 30 µM.

In turn, `COc1ccc(CCC(C)NCC(O)c2ccc(O)c([S+](C)[O-])c2)cc1` (centres undefined) [SULFINALOL] showed an AC50 on Androgen receptor above 30 µM.

For `NS(=O)(=O)c1cc2c(cc1Cl)NC(C1CC3C=CC1C3)NS2(=O)=O` (centres undefined) [CYCLOTHIAZIDE], at Androgen receptor, the AC50 is above 30 µM.

As to `Cc1nc(-c2ccc(OCC(C)C)c(C#N)c2)sc1C(=O)O` [FEBUXOSTAT], at Androgen receptor, the AC50 is above 30 µM.

For the compound `CCCC[N+]1(C)[C@@H]2C[C@@H](OC(=O)[C@H](CO)c3ccccc3)C[C@H]1[C@@H]1O[C@@H]12` (some centres undefined) [BUTYLSCOPOLAMINE], the AC50 at Androgen receptor was above 30 µM.

In the case of `CCO[C@@H](Cc1ccc(OCCn2c(C)ccc2-c2ccc(SC)cc2)cc1)C(=O)O` [SAROGLITAZAR], on Androgen receptor, the AC50 was above 30 µM.

On to `CN1C(=O)N(C)C2C1N(C)C(=O)N2C` (centres undefined) [MEBICAR], for which the AC50 (on Histamine H2 receptor; in assay [1]; in [2]; in assay [3]; at Androgen receptor; at D(1A) dopamine receptor) was above 30 µM throughout. Also, the AC50 (in assay [4]; in assay [5]; in assay [6]; on D(3) dopamine receptor) was above 30 µM in each case.

Take `C1N2CN3CN1CN(C2)C3` [METHENAMINE]: the half-maximal activity concentration (AC50) at Androgen receptor is above 30 µM.

As for `O=C(NC1CCN(CCCCC2(C(=O)NCC(F)(F)F)c3ccccc3-c3ccccc32)CC1)c1ccccc1-c1ccc(C(F)(F)F)cc1` [LOMITAPIDE], the AC50 at Androgen receptor was above 30 µM.

`CCS(=O)(=O)N1CC(CC#N)(n2cc(-c3ncnc4[nH]ccc34)cn2)C1` [BARICITINIB] came in with a half-maximal activity concentration (AC50) on Androgen receptor above 30 µM.

Compound `O=C1CN=C(c2ccccc2)c2c(sc3c2CCCC3)N1` [BENTAZEPAM] gave an AC50 on Androgen receptor of 1.24 µM.

As for `CCOc1ccc(/C=C2\NCCc3cc(OCC)c(OCC)cc32)cc1OCC` [DROTAVERINE], on Androgen receptor, the AC50 is above 30 µM.

The compound `CCOC(=O)CC(SP(=S)(OC)OC)C(=O)OCC` (centres undefined) [MALATHION] had a half-maximal activity concentration (AC50) on Androgen receptor above 30 µM.

Regarding `N/N=c1/cc2c(n[nH]1)CCN(C(=O)c1ccccc1)C2` [ENDRALAZINE], the AC50 (on Histamine H2 receptor; in assay [1]; in assay [2]; in [3]; at Androgen receptor; on D(1A) dopamine receptor) was above 30 µM throughout. Further, the AC50 (in assay [4]; in assay [6]; at D(3) dopamine receptor) was above 30 µM throughout.

Regarding `CCOC(=O)C(c1c(O)c2ccccc2oc1=O)c1c(O)c2ccccc2oc1=O` [ETHYL BISCOUMACETATE], at Androgen receptor, the AC50 was above 30 µM.

Consider `CC(C)Cc1ccc(C(C)C(=O)NO)cc1` (centres undefined) [IBUPROXAM], for which the AC50 at Androgen receptor is above 30 µM.

At Androgen receptor, `O=C(c1ccc(F)c(F)c1Nc1ccc(I)cc1F)N1CC(O)([C@@H]2CCCCN2)C1` [COBIMETINIB] yielded an AC50 above 30 µM.

`CCN(CC)CCNc1ccc(C)c2sc3ccccc3c(=O)c12` [LUCANTHONE] came in with an AC50 on Androgen receptor above 30 µM.

The values are drawn from ChEMBL document CHEMBL5291721, “A preclinical secondary pharmacology resource illuminates target-adverse drug reaction associations of marketed drugs” (Nat Commun, 2023).
